# Reference: US3933805A, “S(IV)-benzo-1,2,4-thiadiazine compounds and process for their preparation” (Biersdorf, Akteingesellschaft, priority 1973, dated 1976)
# Key:
# [1] = test system: Minimum Electroshock Threshold; experiment: Minimum Electroshock Threshold (increase in net); type: in vivo; details: Mus musculus, po; mice
# Excerpt: (§1) Central depressing effects in mice (ED50 in mg/kg p.o.)
# (§2) Example spontaneous Increase in net^(3)
# (3) Minimum Electroshock Threshold, test arrangement according to Brown,
# Schiffmann, Swinyard and Goodman; J.Pharmacol. Exptl. Ther. 107, 273
# spontaneous mobility = experiment: Decrease of spontaneous mobility; type: in vivo; details: Mus musculus, po; mice
# Excerpt: as §1, §2
# (1) Method described in R.A. Turner, Screening Methods in Pharmacology, […]
# pentobarbital sleep = experiment: Prolongation of pentobarbital sleep; type: in vivo; details: Mus musculus, po, mice, p.o., read-out: ED50, increase in sleeping (prolongation of pentobarbital sleep)
# Excerpt: as §1, §2
# (2) Prolongation of pentobarbital sleep, R.A. Turner, Screening Methods i
# Pharmacology, N.Y. 1965, p. 90.
# [2] = test system: guinea pig small intestine; experiment: Spasmolytic effect on guinea pig small intestine in vitro against Acetylcholine; type: cell-based; details: Cavia porcellus, Acetylcholine 0.1 γ/ml, read-out: ED50, spasmolytic effect against Acetylcholine
# Excerpt: (§3) Spasmolytic effect on guinea pig small intestine (1)
# (§4) (1) R. Magnus, Pflugers Arch. ges. Physiol. 102, 123 (1904)
# [3] = test system: guinea pig small intestine; experiment: Spasmolytic effect on guinea pig small intestine in vitro against Barium chloride; type: cell-based; details: Cavia porcellus, Barium chloride 200 γ/ml, read-out: ED50, spasmolytic effect against Barium chloride
# Excerpt: as §3, §4
# [4] = test system: guinea pig small intestine; experiment: Spasmolytic effect on guinea pig small intestine in vitro against Histamine; type: cell-based; details: Cavia porcellus, Histamine 0.1 γ/ml, read-out: ED50, spasmolytic effect against Histamine
# Excerpt: as §3, §4
IC50 [2],IC50 [3],IC50 [4],SMILES,ED50 [1],ED50 (spontaneous mobility),ED50 (pentobarbital sleep)
,,,"CCCN(CCC)CC1=Nc2ccc(Cl)cc2S(=O)(c2ccccc2)=N1 (stereo not drawn) [Example 1, 7-Chloro-3-di-(n-propyl)aminomethyl-1-phenyl-benzo-1,2,4-thiadiazine-1 oxide]",38 mg/kg,98 mg/kg,22 mg/kg
,,,"CCCN(CCC)CC1=Nc2ccccc2S(=O)(c2ccc(N)cc2)=N1 (stereo not drawn) [Example 2, 3-Di-(n-propyl)-aminomethyl-1-(4'-aminophenyl)-benzo-1,2,4-thiadiazine-1-oxide]",,> 250 mg/kg,8 mg/kg
0.9 µg/mL,1.7 µg/mL,,O=S1(c2ccccc2)=NC(CN2CCCCC2)=Nc2ccc(Cl)cc21 (stereo not drawn) [Example 3],34 mg/kg,84 mg/kg,34 mg/kg
,,,CCN(CC)CC1=Nc2ccc(Cl)cc2S(=O)(c2ccccc2)=N1 (stereo not drawn) [Example 4],28 mg/kg,78 mg/kg,46 mg/kg
,,,O=S1(c2ccccc2)=NC(CN2CCOCC2)=Nc2ccc(Cl)cc21 (stereo not drawn) [Example 5],92 mg/kg,> 250 mg/kg,46 mg/kg
,,,O=S1(c2ccccc2)=NC(CN2CCCC2)=Nc2ccc(Cl)cc21 (stereo not drawn) [Example 6],68 mg/kg,70 mg/kg,38 mg/kg
,,,O=S1(c2ccccc2)=NC(CNCCO)=Nc2ccc(Cl)cc21 (stereo not drawn) [Example 7],126 mg/kg,23 mg/kg,15 mg/kg
,,,CN(C)CC1=Nc2ccc(Cl)cc2S(=O)(c2ccccc2)=N1 (stereo not drawn) [Example 8],46 mg/kg,96 mg/kg,16 mg/kg
,,,COCCNCC1=Nc2ccc(Cl)cc2S(=O)(c2ccccc2)=N1 (stereo not drawn) [Example 9],32 mg/kg,> 250 mg/kg,58 mg/kg
,,,CCNCC1=Nc2ccc(Cl)cc2S(=O)(c2ccccc2)=N1 (stereo not drawn) [Example 13],42 mg/kg,240 mg/kg,25 mg/kg
,,,COCCN(C)CC1=Nc2ccc(Cl)cc2S(=O)(c2ccccc2)=N1 (stereo not drawn) [Example 14],46 mg/kg,> 250 mg/kg,28 mg/kg
2.7 µg/mL,2.2 µg/mL,0.96 µg/mL,CCCN(CCC)CC1=Nc2cc(C)ccc2S(=O)(c2ccccc2)=N1 (stereo not drawn) [Example 15],> 500 mg/kg,76 mg/kg,8.5 mg/kg
4 µg/mL,1.2 µg/mL,,CCCN(CCC)CC1=Nc2ccccc2S(=O)(c2ccccc2)=N1 (stereo not drawn) [Example 18],134 mg/kg,186 mg/kg,3.1 mg/kg
,,,O=S1(c2ccccc2)=NC(CNCCO)=Nc2ccccc21 (stereo not drawn) [Example 19],> 500 mg/kg,> 250 mg/kg,2 mg/kg
2.6 µg/mL,,,CCCN(CCC)CC1=Nc2ccccc2S(=O)(c2ccc(Cl)cc2)=N1 (stereo not drawn) [Example 20],> 250 mg/kg,31 mg/kg,2 mg/kg
,,,O=S1(c2ccc(Cl)cc2)=NC(CNCCO)=Nc2ccccc21 (stereo not drawn) [Example 21],,46 mg/kg,9 mg/kg
2.2 µg/mL,0.72 µg/mL,,CCCN(CCC)CC1=Nc2ccc(Cl)cc2S(=O)(c2ccc(Cl)cc2)=N1 (stereo not drawn) [Example 22],,28 mg/kg,16 mg/kg
1.1 µg/mL,0.9 µg/mL,0.08 µg/mL,CCCN(CCC)CC1=Nc2ccc(Cl)cc2S(=O)(c2cccc(C)c2)=N1 (stereo not drawn) [Example 23],,,
2.2 µg/mL,0.72 µg/mL,0.04 µg/mL,CCCN(CCC)CC1=Nc2cccc(Cl)c2S(=O)(c2ccc(Cl)cc2)=N1 (stereo not drawn) [Example 24],115 mg/kg,16 mg/kg,20 mg/kg
0.69 µg/mL,0.69 µg/mL,,CCCN(CCC)CC1=Nc2ccc(C)cc2S(=O)(c2ccc(Cl)cc2)=N1 (stereo not drawn) [Example 25],21 mg/kg,31 mg/kg,> 250 mg/kg
